Results on 16 compounds are retold here after ChEMBL document CHEMBL1201862, “PubChem BioAssay data set” (2004).

Active and inactive are the calls of the source.

Broadly, the AC50 is the midpoint of the concentration-response curve, whichever way the signal moves. What is called EC50 is the concentration that produces a half-maximal response. What is called IC50 is the concentration that inhibits the measured activity by half.

Experiment [1] addresses NAD-dependent protein deacylase sirtuin-5, mitochondrial (Homo sapiens, UniProt Q9NXA8). Put plainly: sirtuin-5 deacylation blockers, concentration series – biochemical, fluorescence imaging, cherry-pick, set 5, dose response (AID 720591).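 Also: desuccinylation of succinyl peptide AMC substrate read as fluorescence after trypsin release; potency of inhibitors that lower fluorescence and may act on trypsin instead.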
The subject of experiment [2] is Streptococcus sp. 'group A'. In words: Streptococcus pyogenes SK(-)GAS viability under kanamycin – luminescence, BacTiterGlo, confirmation, counter-screen for streptokinase expression inhibitor project, dose response (AID 1900). The format is functional, organism-based. Background: Counterscreens check selectivity or assay interference.
For experiment [3], the target named is T1, Streptokinase A (Streptococcus pyogenes serotype M1, UniProt P10520).
T1 sequence (P10520 whole entry): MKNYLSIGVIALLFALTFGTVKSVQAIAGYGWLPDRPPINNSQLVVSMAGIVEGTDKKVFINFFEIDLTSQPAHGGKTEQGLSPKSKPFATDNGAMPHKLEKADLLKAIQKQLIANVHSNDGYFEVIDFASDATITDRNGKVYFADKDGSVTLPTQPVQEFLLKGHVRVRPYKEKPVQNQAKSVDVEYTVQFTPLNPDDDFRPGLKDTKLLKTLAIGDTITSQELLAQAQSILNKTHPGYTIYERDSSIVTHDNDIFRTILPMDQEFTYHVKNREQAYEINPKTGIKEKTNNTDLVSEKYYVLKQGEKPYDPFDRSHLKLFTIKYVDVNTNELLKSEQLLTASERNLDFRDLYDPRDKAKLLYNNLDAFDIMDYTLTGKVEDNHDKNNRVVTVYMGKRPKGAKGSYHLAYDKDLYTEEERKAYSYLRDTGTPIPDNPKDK
In words: viability-normalized secreted streptokinase activity reduction – plasminogen activation absorbance, OD405, dose response (AID 1914).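 Also: secreted streptokinase activity via plasminogen activation per viability signal from cell pellet.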 Type of experiment: functional, Streptococcus pyogenes M1 GAS.

Experiment [4] is described as follows: viability of PTEN-deleted HCT116 cells – cell-based, HCT116 PTEN knockout, dose response (AID 1047).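 Also: HCT116 colon tumor cells with PTEN knocked out; cells exposed to compound for 60 hours before readout; potency for loss of cell viability measured by luminescence.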 Type of experiment: functional.
A short description of experiment [5]: viability of HCT116 lacking mutant beta-catenin – cell-based, human colon tumor, dose response (AID 1045).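 Also: HCT116 colon tumor cells with beta catenin knocked out; cells exposed to compound for 60 hours.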 Type of experiment: functional.
Experiment [6] relates to Streptococcus. Put plainly: GAS UMAA2166 growth inhibition – luminescence, BacTiterGlo, counter-screen for streptokinase expression inhibitor project, dose response (AID 1915).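 Also: potency for reduction of bacterial viability or growth.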 The format is functional, organism-based.
The nature of experiment [7]: Luminescence Cell-Based Dose Retest to Confirm Inhibitors of Cancer Stem Cells. [Related pubchem assays (depositor defined):AID2717, AID2721]. The note with it: Homo sapiens. The format is functional.
The subject of experiment [8] is INS1. Put plainly: INS-1E survival protection against cytokine death – cell-based, luminescence, retest, dose response (AID 449756).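 Also: cell death triggered by IL-1 beta plus TNF-alpha plus IFN-gamma mixture; protective hits raise ATP signal compared with cytokine alone wells.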 Type of experiment: functional. To be noted: Rattus norvegicus.
The target in experiment [9] is Disintegrin and metalloproteinase domain-containing protein 17 (Homo sapiens, UniProt P78536). In words: inhibition of ADAM17 substrate cleavage – biochemical, quenched FRET substrate, counter-screen for ADAM10 exosite inhibitor project, dose response (AID 743253).
In experiment [10] the test system is H9c2. In words: cells. To be noted: Rattus norvegicus, H9c2, Myocardium. The format is functional, cell-based.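 Also: confirmatory concentration-response retest of ultra-high-throughput screening hits for modulation of myocardial damage; cell death induced by hydrogen peroxide oxidative stress; compound pretreatment for 60 min then peroxide exposure for 2 h; potency is for protecting the cells against peroxide damage rather than for killing them.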
Experiment [11] has as its system HEK293. In words: viability loss in HEK293T cells – cell-based, ATP luminescence, cherry-pick samples, cytotoxicity control, dose response (AID 687005).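 Also: cells exposed to compound for 48 hours.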 Type of experiment: functional. The note with it: Homo sapiens.
The nature of experiment [12]: HEK293 Cytotoxicity Assay Measured in Cell-Based System Using Plate Reader - 7071-01_Inhibitor_Dose_CherryPick_Activity_Set2. The format is functional.
Experiment [13] has as its target Paired box protein Pax-8 (Homo sapiens, UniProt Q06710). Put plainly: PAX8 transcriptional activity inhibition in RMG-I – RMG-I cells, luciferase, cherry-pick, dose response (AID 687027).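 Also: luciferase reporter driven by Pax8 target thyroperoxidase promoter measured by SteadyGlo luminescence.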 The format is functional, cell-based.
The nature of experiment [14]: inhibitors acting on PAX2 in cells – cell-based, plate reader, dry powder samples, selectivity assay for PAX8 inhibitor project, dose response (AID 743048).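 Also: HEK293 cells carrying a WT1 promoter luciferase reporter driven by expressed Pax2; potency is for inhibition of Pax2 driven reporter signal.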 Type of experiment: functional.
Experiment [15] in a line: PAX8-dependent cell viability loss – plate reader, dry powder, dose response (AID 743049). Type of experiment: functional, cell-based.
Experiment [16] can be described thus: YAP1 overexpression rescue of CTGF inhibition – DLD1 cells, RT-qPCR, cherry-pick, mechanism study for YAP1 pathway inhibitor project, dose response (AID 1053127). The note with it: DLD-1. The format is functional, cell-based. On the technique in general: Real-time PCR tracks product formation cycle by cycle.
Experiment [17] can be described thus: P. falciparum Dd2 growth inhibitors, dose response, SYBR Green, cherry-picked samples (AID 1159567). Type of experiment: functional, cell-based.
Experiment [18] is described as follows: blockers of HIV-1 envelope-mediated cell-cell fusion – cherry-pick, dose response (AID 652057). Type of experiment: functional, cell-based.
Experiment [19] can be described thus: toxicity to human hepatoma HepG2 cells – cell-based, cherry-picked samples, cytotoxicity control, dose response (AID 1159577). The format is functional.
Experiment [20] can be described thus: A549 cell cytotoxicity, dose response, cytotoxicity control, plate reader, cherry-pick, antagonist series (AID 743412). Type of experiment: functional, cell-based.
Experiment [21] in a line: toxicity toward HepG2 liver cells – cell-based, plate reader, cherry-pick, antagonist series, cytotoxicity control, dose response (AID 743416). Type of experiment: functional.
A short description of experiment [22]: blockers of bursicon-stimulated LGR2 cAMP reporter – cell-based, HEK293, CRE-luciferase reporter, cherry pick, set 2, dose response (AID 743343).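 Also: transfected cells were stimulated with diluted bursicon conditioned medium after compound addition.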 The format is functional.
A short description of experiment [23]: blockade of melanocortin 4 receptor signaling – cell-based, plate reader, cherry pick, counter-screen for LGR2 antagonist project, dose response (AID 743444).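 Also: transfected HEK 293 cells stimulated with alpha-MSH peptide; potency of inhibitors of the alpha-MSH evoked signal.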 The format is functional.
A short description of experiment [24]: viability loss in HEK293 cells – cell-based, plate reader, cherry-picked samples, cytotoxicity control, dose response (AID 743446). The format is functional.
The nature of experiment [25]: glucagon-like peptide-1 release potency in STC-1, concentration-response, half-maximal inhibitory concentration in the STC-1 line (AID 1117345). The format is functional, cell-based.
The nature of experiment [26]: Potency on glucagon-like peptide 1 release, dose-response in NCI-H716 cell line, half maximal inhibitory concentration (AID 1117344). The format is functional, cell-based.
Experiment [27] is described as follows: CTGF mRNA reduction in DLD1 cells – cell-based, DLD1 colon cancer, RT-qPCR, cherry-pick, dose response (AID 1053122). The format is functional. To be noted: Cancer cell lines.
Experiment [28] is described as follows: growth inhibition of yeast DHODH-expressing 3D7 parasites – SYBR Green, dry powder samples, dose response (AID 1159570).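 Also: parasite growth measured after 72 hours of compound exposure.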 The format is functional, cell-based.
The nature of experiment [29]: toxicity to human HepG2 hepatoma cells – cell-based, plate reader, dry powder samples, cytotoxicity control, dose response (AID 1159569).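 Also: inhibitor potency with signal falling toward the positive control level.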 Type of experiment: functional.
Experiment [30] can be described thus: Dd2 malaria parasite growth inhibition potency – SYBR Green, dry powder samples, dose response (AID 1159566).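 Also: potency for growth inhibition with lower SYBR green DNA signal.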 Type of experiment: functional, cell-based.
Experiment [31] is described as follows: Plasmodium falciparum Dd2 Sybr green parasite growth Measured in Cell-Based and Microorganism Combination System Using Plate Reader - 2153-01_Inhibitor_Dose_DryPowder_Activity_Set3. The format is functional.
Experiment [32] in a line: growth inhibition of PfATP4-mutant resistant parasites – NITD609-resistant line, SYBR Green, dry powder, dose response (AID 1159571).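 Also: parasites synchronized at ring stage by sorbitol before testing.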 Type of experiment: functional, cell-based.
Experiment [33] has as its target Cytochrome P450 2C19 (Homo sapiens, UniProt P33261). In words: Cytochrome panel assay with activity outcomes. Panel member name: p450-cyp2c19 Compounds with AC50 equal or less than 10 uM are considered active. Type of experiment: functional. The note with it: read-out: AC50.
For experiment [34], the target named is Cytochrome P450 2D6 (Homo sapiens, UniProt P10635).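 Also: CYP2D6 member of a cytochrome P450 panel assay.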
For experiment [35], the target named is T2, Cytochrome P450 1A2 (Homo sapiens, UniProt P05177).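 Also: PubChem cytochrome P450 panel assay, CYP1A2 panel member.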
T2 sequence (P05177 whole entry): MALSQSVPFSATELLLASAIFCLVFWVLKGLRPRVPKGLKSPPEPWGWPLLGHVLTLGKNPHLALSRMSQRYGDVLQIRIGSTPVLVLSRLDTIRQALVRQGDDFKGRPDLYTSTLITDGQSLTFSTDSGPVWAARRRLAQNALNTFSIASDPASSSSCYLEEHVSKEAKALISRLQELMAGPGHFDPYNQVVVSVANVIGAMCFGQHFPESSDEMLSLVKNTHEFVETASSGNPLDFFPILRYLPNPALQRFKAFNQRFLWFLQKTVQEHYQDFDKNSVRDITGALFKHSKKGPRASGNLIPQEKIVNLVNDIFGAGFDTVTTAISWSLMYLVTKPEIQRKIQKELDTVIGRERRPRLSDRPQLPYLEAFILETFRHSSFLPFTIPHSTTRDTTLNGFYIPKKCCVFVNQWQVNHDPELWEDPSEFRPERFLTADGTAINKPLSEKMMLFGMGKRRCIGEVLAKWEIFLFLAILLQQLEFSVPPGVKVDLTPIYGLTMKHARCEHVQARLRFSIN

Experiment [36] in a line: IC50 of insulin release inhibition, rat insulinoma INS-1E line, 5 mM glucose, cell-based (AID 1117331). Type of experiment: functional.

Chain of NAD-dependent protein deacylase sirtuin-5, mitochondrial (Q9NXA8 whole entry): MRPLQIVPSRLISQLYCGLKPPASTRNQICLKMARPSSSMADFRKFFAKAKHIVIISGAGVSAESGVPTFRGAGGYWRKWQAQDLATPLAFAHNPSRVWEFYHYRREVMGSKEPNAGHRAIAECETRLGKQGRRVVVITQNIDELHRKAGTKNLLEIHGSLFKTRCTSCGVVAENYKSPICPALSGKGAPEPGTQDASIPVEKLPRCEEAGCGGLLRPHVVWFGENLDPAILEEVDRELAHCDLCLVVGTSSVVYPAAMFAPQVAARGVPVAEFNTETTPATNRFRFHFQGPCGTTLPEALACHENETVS
Chain of Cytochrome P450 2D6 (P10635 whole entry): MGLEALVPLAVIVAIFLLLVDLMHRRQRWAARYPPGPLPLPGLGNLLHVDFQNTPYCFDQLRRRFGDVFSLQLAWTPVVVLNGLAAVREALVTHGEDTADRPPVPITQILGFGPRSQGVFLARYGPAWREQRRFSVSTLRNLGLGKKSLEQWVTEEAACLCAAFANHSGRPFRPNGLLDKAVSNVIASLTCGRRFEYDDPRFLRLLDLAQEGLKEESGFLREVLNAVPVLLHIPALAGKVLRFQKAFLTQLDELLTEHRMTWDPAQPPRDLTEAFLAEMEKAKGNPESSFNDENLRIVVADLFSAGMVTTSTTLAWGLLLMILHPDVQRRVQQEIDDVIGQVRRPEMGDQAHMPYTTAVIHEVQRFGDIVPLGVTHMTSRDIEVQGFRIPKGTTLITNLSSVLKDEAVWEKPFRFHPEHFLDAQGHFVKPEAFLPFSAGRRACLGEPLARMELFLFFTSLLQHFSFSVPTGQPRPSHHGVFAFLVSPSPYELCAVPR
Chain of Cytochrome P450 2C19 (P33261 whole entry): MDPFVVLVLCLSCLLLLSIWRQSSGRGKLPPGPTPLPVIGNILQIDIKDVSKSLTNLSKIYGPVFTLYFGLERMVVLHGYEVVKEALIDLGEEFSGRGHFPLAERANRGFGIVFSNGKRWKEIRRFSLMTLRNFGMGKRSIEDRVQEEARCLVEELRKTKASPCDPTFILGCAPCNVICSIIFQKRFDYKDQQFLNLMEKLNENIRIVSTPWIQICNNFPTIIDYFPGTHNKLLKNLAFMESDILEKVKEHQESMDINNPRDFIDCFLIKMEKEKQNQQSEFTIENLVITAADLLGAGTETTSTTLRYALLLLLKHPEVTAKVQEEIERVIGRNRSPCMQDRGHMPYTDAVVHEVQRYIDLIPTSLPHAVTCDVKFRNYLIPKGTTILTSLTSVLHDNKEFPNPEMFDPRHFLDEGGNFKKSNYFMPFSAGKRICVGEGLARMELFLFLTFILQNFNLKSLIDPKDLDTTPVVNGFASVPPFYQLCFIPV
Chain of Disintegrin and metalloproteinase domain-containing protein 17 (P78536 whole entry, the tested form may be a part): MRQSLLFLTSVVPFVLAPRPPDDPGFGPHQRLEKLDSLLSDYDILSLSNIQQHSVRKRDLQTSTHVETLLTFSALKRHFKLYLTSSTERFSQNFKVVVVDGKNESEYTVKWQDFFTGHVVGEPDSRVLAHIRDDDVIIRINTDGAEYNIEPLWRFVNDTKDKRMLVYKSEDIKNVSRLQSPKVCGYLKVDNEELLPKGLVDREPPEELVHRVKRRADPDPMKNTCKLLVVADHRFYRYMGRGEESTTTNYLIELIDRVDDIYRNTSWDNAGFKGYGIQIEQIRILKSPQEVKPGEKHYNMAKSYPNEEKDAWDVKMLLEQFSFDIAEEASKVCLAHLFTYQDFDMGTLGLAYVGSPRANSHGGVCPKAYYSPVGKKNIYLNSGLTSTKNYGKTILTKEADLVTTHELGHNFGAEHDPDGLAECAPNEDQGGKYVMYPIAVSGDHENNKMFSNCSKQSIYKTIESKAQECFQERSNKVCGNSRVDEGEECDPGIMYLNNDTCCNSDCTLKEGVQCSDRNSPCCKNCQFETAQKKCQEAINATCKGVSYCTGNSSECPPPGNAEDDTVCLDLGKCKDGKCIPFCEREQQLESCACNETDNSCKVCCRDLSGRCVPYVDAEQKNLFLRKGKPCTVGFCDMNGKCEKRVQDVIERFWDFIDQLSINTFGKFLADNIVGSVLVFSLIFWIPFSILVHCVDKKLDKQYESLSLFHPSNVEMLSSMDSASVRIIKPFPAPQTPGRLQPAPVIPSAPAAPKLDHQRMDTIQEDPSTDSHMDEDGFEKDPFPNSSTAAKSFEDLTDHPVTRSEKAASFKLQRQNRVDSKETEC
Chain of Paired box protein Pax-8 (Q06710 whole entry): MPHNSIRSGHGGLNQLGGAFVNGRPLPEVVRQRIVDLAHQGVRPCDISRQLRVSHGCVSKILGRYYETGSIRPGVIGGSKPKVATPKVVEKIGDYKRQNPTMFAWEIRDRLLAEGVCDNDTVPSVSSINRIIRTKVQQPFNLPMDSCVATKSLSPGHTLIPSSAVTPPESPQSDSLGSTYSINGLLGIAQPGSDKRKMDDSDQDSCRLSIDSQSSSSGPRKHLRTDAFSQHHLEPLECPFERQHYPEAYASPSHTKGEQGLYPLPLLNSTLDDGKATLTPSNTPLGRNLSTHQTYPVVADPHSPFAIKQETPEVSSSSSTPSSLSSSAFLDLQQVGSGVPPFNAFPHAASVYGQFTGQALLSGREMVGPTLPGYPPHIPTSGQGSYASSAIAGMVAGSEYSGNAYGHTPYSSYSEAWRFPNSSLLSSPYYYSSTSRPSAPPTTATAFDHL

As for `COc1ccc(C(=O)NCC(=O)OCc2ccccc2F)cc1`, in experiment [1], the AC50 is > 30 µM (inactive).
Consider `Cc1ccc(NS(=O)(=O)c2ccc(Cl)c(NC(=S)NC(=O)C3CCCCC3)c2)cc1Cl`, for which the EC50 in experiment [2] was 0.756 µM (active); in experiment [3] it was 2.48 µM (active); in experiment [4] it was 19.8 µM (active); in experiment [5], 20.8 µM (active); in experiment [6], 4.65 µM (active). Further, the values for the AC50 in experiment [7] and in [8] were 3.05 µM (active) and 10.2 µM (active), respectively. The IC50 in [9] was > 69.5 µM (inactive).
Consider `COc1ccc(S(=O)(=O)N2CCOCC2)cc1NC(=O)c1cccc2c(=O)c(C)c(-c3ccccc3)oc12`, for which the IC50 in experiment [10] is > 79 µM (inactive). The AC50 in [1] is > 30 µM (inactive).
As for `O=C(CN(c1ccc(F)cc1)S(=O)(=O)c1ccccc1)NC1CCCCCC1`, the AC50 in experiment [11] and in [12] was 33.4 µM (active) throughout.
For `C[C@H](CO)N1C[C@H](C)[C@H](CN(C)C(=O)Nc2ccc(-c3cccs3)cc2)OCc2cnnn2CCCC1=O`, the results for the AC50 in [13], in [14] and in experiment [15] were < 0.26 µM (active), > 70 µM (inactive) and 11.5 µM (active), respectively.
`CCNC(=O)c1cc2c(c(-c3cccc(-c4ccccc4F)c3)n1)[C@@H](CCO)N(C(=O)CC1CC1)C2`: the AC50 was 11 µM (active) in [16] and 5.87 µM (active) in experiment [17].
With `COc1ccc2c3c(n(C)c2c1)[C@@H](CO)N(C(=O)C1CCOCC1)CC31CCN(Cc2cccc(F)c2)CC1`, the AC50 in experiment [18] is 0.629 µM (active); in experiment [17] it was 6.52 µM (active); in experiment [19] it was 10.8 µM (active).
Turning to `C[C@H]1CCCCO[C@H](CN(C)S(=O)(=O)c2ccc(Cl)cc2)[C@@H](C)CN([C@@H](C)CO)C(=O)c2cc(NS(=O)(=O)c3cccs3)ccc2O1`, the AC50 in [11] and in experiment [12] was 15.6 µM (active) each time.
On to `C[C@H]1CN([C@@H](C)CO)C(=O)c2cc(NC(=O)Nc3ccc(C(F)(F)F)cc3)ccc2O[C@H]1CN(C)S(=O)(=O)c1cccs1`, for which the AC50 is 18 µM (active) in experiment [20]; > 52 µM (inactive) in [21]; 32.4 µM (active) in experiment [22]; 23.1 µM (active) in [23]; 29.1 µM (active) in [24].
Consider `CN[C@@H]1[C@H](O)[C@H](NC)[C@H]2O[C@@]3(O)C(=O)C[C@@H](C)O[C@H]3O[C@@H]2[C@H]1O`, for which the IC50 in experiment [25] and in experiment [26] was > 40 µM (inactive) in each case.
For `COc1ccccc1NC(=O)N1CCCCN2[C@H](CO)[C@H](c3ccc(-c4cccc(C#N)c4)cc3)[C@@H]2C1`, the AC50 was 11.6 µM (active) in experiment [16] and 1.44 µM (active) in [27].
Take `COc1ccccc1C#Cc1ccc([C@H]2[C@@H](CO)N(C(=O)C3CC3)[C@H]2C#N)cc1`: the AC50 is 2.22 µM (active) in experiment [28]; > 100 µM (inactive) in experiment [29]; 0.457 µM (active) in experiment [30]; 2.28 µM (active) in experiment [31]; 1.09 µM (active) in [32].
On to `N#C[C@@H]1[C@H](c2ccc(-c3cccc(F)c3)cc2)[C@@H](CO)N1C(=O)NC1CCCC1`, for which the AC50 is 13 µM (active) in experiment [28]; > 100 µM (inactive) in [29]; 0.483 µM (active) in [17]; 0.117 µM (active) in [30]; 0.326 µM (active) in experiment [31]; 0.239 µM (active) in experiment [32].
For the compound `O=C(Nc1ccc(F)cc1)N1C[C@H]2[C@@H](c3ccccc31)[C@H](CO)N2C(=O)c1ccccc1F`, the AC50 in experiment [17] was 4.75 µM (active); in experiment [19], > 39 µM (inactive).
Take `CC[C@H](c1ccc(O)cc1)[C@@H](CC)c1ccc(O)cc1` [HEXESTROL]: the AC50 was 3.16 µM (inconclusive) in experiment [33], 15.8 µM (inconclusive) in experiment [34] and 12.6 µM (inconclusive) in experiment [35]. Further, the results for the IC50 in experiment [25] and in experiment [26] were 6.88 µM (inactive) and > 40 µM (inactive), respectively.
Turning to `COc1ccc(CN(CCN(C)C)c2ccccn2)cc1` [PYRILAMINE], the IC50 in experiment [36] is 15.4 µM (inactive).
